This passage reports melting point results from a melting point compilation (Tetko et al.; mined from patent text by program, amines drawn as free bases though some values may be those of a salt).

The structures appear in SMILES notation.

Broadly, the melting point is the temperature, or range, at which the solid turns liquid. `COC=C(C(=O)OC)c1ccccc1CON=C(C)c1nn(C)c2cc(OCC3CC3(Cl)Cl)c(F)cc12` (stereo unspecified) came in with a melting point of 138 to 140 °C.

For `CN1CCc2c(-c3ccc(Cl)cc3)ccc([N+](=O)[O-])c2C1`, the melting point was in the range of 162 to 163 °C.

In turn, `CCOC(=O)c1c(SC2CCCCC2=O)nc2cc(Cl)c(F)cc2c1O` (stereo unspecified) yielded a melting point of 252 to 257 °C.

The compound `CN(C)C=Nc1c(S(=O)C(F)(F)F)c(-c2ncon2)nn1-c1c(Cl)cc(C(F)(F)F)cc1Cl` (stereo unspecified) returned a melting point of 140 °C.

Regarding `O=Cc1ccc(CN2C(=O)c3ccccc3C2=O)c(Cl)c1`, the melting point lay within 123 to 126 °C.

As for `CN(CC(=O)O)[C@H]1CC[C@H](Nc2ncc3ncnc(Nc4ccc(F)c(Cl)c4)c3n2)CC1`, the melting point is 220 to 228 °C.

`COC(=O)c1sccc1NC(=S)N1CCN(c2ncnc3cc(OC)c(OC)cc23)CC1` showed a melting point of 226 to 228 °C.

In turn, `COc1cc(OC)cc(N2CCN(C(=S)Nc3cc(C(C)O)c(C)nc3OC)CC2)c1` (stereo unspecified) showed a melting point of 189 to 190 °C.

In turn, `COC1(OC)SC(c2ccncc2)=C(C)NC1=O` gave a melting point of 154 to 155 °C.

`CCOC(=O)c1ccc(OCC(O)CC)cc1` (stereo unspecified) came in with a melting point of 52 to 52.5 °C.

`Cc1cc2c(-c3ccccc3Cl)c(NC(=O)Nc3cccc(C(F)(F)F)c3)c(=O)n(C)c2cc1C` registered a melting point of 175 to 176 °C.

As for `CCOC(=O)c1ccc(-c2nc(C(=O)OCC)ns2)cc1`, the melting point lay within 66 to 67.5 °C.

For the compound `O=CCC1Cc2cc(Cl)c(Cl)cc2C1=O` (racemic), the melting point was 93 to 96 °C.

In turn, `Cc1[nH]c(C(=O)NCCc2ccccn2)c(C)c1-c1nc2ccc(C(=O)c3ccccc3)cc2[nH]1` had a melting point of 238 to 244 °C.

`CCCCc1c2c(nn1-c1ccccc1)c(Cl)nc1ccccc12`: the melting point was in the range of 239 to 243 °C.

Consider `Cc1oc(-c2ccccc2)nc1COc1ccc(Cn2cc(C(=O)O)c(-c3ccccc3)n2)cc1`, for which the melting point was in the range of 165 to 166 °C.

Turning to `COc1cc2c(cc1OC)CCC=C2`, the melting point lay within 90.5 to 91 °C.

In turn, `COc1ccc(Cc2nc(S)[nH]c2Cc2ccc(OC)cc2)cc1` gave a melting point of 270 °C.

The compound `CCOC(=O)C=Cc1c(C#N)cnn1-c1ccc(Cl)c(Cl)c1Cl` registered a melting point of 131 to 134 °C.

`CCCCCCCCOc1cc(OC)ccc1C=O` yielded a melting point of 37 to 39 °C.

Regarding `CCCS(=O)(=O)NCCCCn1c(=O)c2c(C)nc3cccc1n32`, the melting point fell in the range of 150 to 151 °C.

With `CC(C)C[C@H](NC(=O)OC(C)(C)C)[C@@H](O)C[C@H](c1ccccc1)C(C)C`, the melting point fell in the range of 95 to 96 °C.

The compound `CC(C)=NOCC(=O)O` showed a melting point of 76 °C.

`CN(C(=O)CCCCO/N=C(\c1ccccc1)c1ccc2c(c1)CN1CC(=O)NC1=N2)C1CCCCC1` had a melting point of 190 °C.

As for `COc1ccc2cc(S(=O)(=O)Cc3ccc(OC)c([N+](=O)[O-])c3)c(=O)oc2c1`, the melting point fell in the range of 250 to 252 °C.

Consider `CC(=CC(=O)Nc1ccc(C(=O)O)cc1)c1cc(C(C)C)c(C(C)C)o1`, for which the melting point lay in the range of 232 to 235 °C.

Consider `Cn1c(=O)on(-c2cc(F)ccc2F)c1=O`, for which the melting point fell in the range of 66 to 68 °C.

Compound `O=Cc1cccc(-c2cccc3ccccc23)n1` had a melting point of 65 to 66 °C.

As to `CS(=O)(=O)c1cc([N+](=O)[O-])ccc1OC(F)(F)F`, the melting point fell in the range of 102 to 104 °C.

In the case of `CC(C)(C)C(F)(F)c1ccc(C[C@@H](NC(=O)c2cccc3c2C=CCCC3)[C@@H](O)c2cccc(Cl)c2)cc1` (racemic), the melting point lay in the range of 119 to 120 °C.

For the compound `COc1cccc(C2(c3cccc(OC)c3)CC2C=CC(=O)NC(C)CCCc2cccnc2)c1` (single isomer, unassigned), the melting point was in the range of 104 to 106 °C.

As to `O=c1[nH]cc(Cl)c2ccc(CO)cc12`, the melting point lay in the range of 266 to 268 °C.

For the compound `CNC(=O)N1N=C(c2ccc(N)c(C)c2)c2cc(Cl)ccc2C=C1C`, the melting point was 210 to 212 °C.

Consider `CCCCCCCCCCCCCCCCCCOCC(COC(c1ccccc1)(c1ccccc1)c1ccccc1)OS(=O)(=O)c1ccc(C)cc1` (stereo unspecified), for which the melting point lay in the range of 52 to 53 °C.

On to `O=C(Nc1nc2ccccc2s1)c1cn(-c2ccccc2)c2ccccc2c1=O`, for which the melting point lay within 295 to 297 °C.

As to `COc1ccc(Br)c2c1C[C@H](N(Cc1ccccc1)Cc1ccccc1)CC2`, the melting point fell in the range of 100 to 101 °C.

Regarding `CCOC(=O)c1cn(C)c2nc3cc(Cl)c(F)cc3cc2c1=O`, the melting point lay in the range of 360 to 362 °C.

Consider `Cc1ccc(OCc2ccccc2)c2[nH]c(-c3ccccc3)nc12`, for which the melting point was in the range of 221 to 224 °C.

In turn, `O=C(NCCCc1ccncc1)N(C1CCCCC1)C1CCCCC1` came in with a melting point of 143 to 146 °C.

In turn, `COc1ccc2ccc(OC)c(C=O)c2c1` displayed a melting point of 94 °C.

Consider `OCC(O)Cc1nccn1CCCc1cccc(OCc2coc(/C=C/c3ccc(C(F)(F)F)cc3)n2)c1` (stereo unspecified), for which the melting point lay within 102 to 104 °C.

The compound `O=C(CSc1ccnc2ccccc12)c1ccc(OCc2ccccc2)cc1` registered a melting point of 135 to 136 °C.

`O=C1NCC(CCOC(=O)c2ccccc2)(c2ccc(F)c(F)c2)O1` (stereo unspecified) came in with a melting point of 147 °C.

`O=C(/C=C/C=C/c1ccc(Cl)cc1)NCCCC(=O)NO` came in with a melting point of 164 to 166 °C.

As for `COCOc1ccc(Cl)cc1-c1cc(-c2cccc([N+](=O)[O-])c2)c(C#N)c(N)n1`, the melting point was in the range of 192 to 193 °C.

As to `CC(C)n1c(=O)nc(-c2ccc3c(c2)CCO3)c2cc3c(cc21)OCO3`, the melting point is 206 to 209 °C.

Compound `N#Cc1c(Cl)c2cc(F)ccc2n(Cc2ccccc2)c1=O` gave a melting point of 228 °C.

The compound `COc1ccc(CC(=O)c2ccc(OC)cc2O)cc1` registered a melting point of 101 to 102 °C.

`COc1cc2ccnc(C(S)(C#N)CCC(=O)O)c2cc1OC` (stereo unspecified) registered a melting point of 169 to 170 °C.

`CC(SCc1cc2cc(Cl)ccc2n1S(=O)(=O)c1ccccc1)C(=O)O` (stereo unspecified) showed a melting point of 138 °C.

`O=S1(=O)N=CN(C2CC2)c2c1ccc(Br)c2F`: the melting point lay in the range of 244 to 247 °C.

Consider `Cc1ccc(C2c3c(C)c(N4CCN(c5ccc(F)cc5)CC4)c(C)c(C)c3OC2(C)C)cc1` (stereo unspecified), for which the melting point lay within 159 to 162 °C.

In turn, `COc1c(-c2cc3c(s2)CCC/C3=N\OCc2ccccn2)ccc2c(=O)c(C(=O)O)cn(C3CC3)c12` had a melting point of 178 to 179 °C.

As to `CC(=O)Oc1ccccc1C(=O)Nc1cc(Cl)cc(Cl)c1`, the melting point was in the range of 167 to 168 °C.

The compound `CC(C)(C)OC(=O)C[C@H](NS(=O)(=O)c1ccc2ccccc2c1)C(=O)O` returned a melting point of 141 °C.

On to `C=CCNC1=NN=C(c2ccc(Cl)cc2Cl)CS1`, for which the melting point lay in the range of 188 to 189 °C.

In turn, `CCN(CC)CCNC(=O)c1c(O)c2cnc(-c3ccccc3)nc2n(CCOC)c1=O` showed a melting point of 115 to 117 °C.

In the case of `Cc1csc2c1cc(C(=O)c1ccccc1)n2CC(=O)O`, the melting point came to 197 °C.

The compound `CC(=O)CCOc1c(-c2ccc(S(C)(=O)=O)cc2)cnn(-c2ccc(F)c(F)c2)c1=O` registered a melting point of 134 to 135 °C.

The compound `CCCCCCOC(C)c1ccc(-c2ccc(C(=O)O)cc2)cc1` (single isomer, unassigned; (+)) came in with a melting point of 154 °C.

In turn, `CCCCCCCC(CC(=O)OO)CC(=O)OO` displayed a melting point of 19 to 22 °C.

In turn, `c1ccc(CN2CCC(CCc3noc4cc(N5CCOCC5)ccc34)CC2)cc1` returned a melting point of 129 to 130 °C.

Consider `Cc1ncccc1C(=O)NCC1CCN(C[C@H]2COc3cccc(Cl)c3O2)CC1`, for which the melting point fell in the range of 147 to 149 °C.

In turn, `Brc1ccc(SC23CC4CC(CC(C4)C2)C3)cc1` yielded a melting point of 121 to 122 °C.

In turn, `N#CN=C(Cc1ccccc1F)NC1CCc2ccccc21` (stereo unspecified) gave a melting point of 141 to 142 °C.

Compound `O=C(O)C1CCC(Nc2nccc(-n3nnc4c(I)cccc43)n2)CC1` (stereo unspecified) yielded a melting point of 252 to 254 °C.

With `CC(O)(C#Cc1ccc(S(=O)(=O)N2CCCC2)cc1)C(F)(F)F` (stereo unspecified), the melting point is 140 to 143 °C.

The compound `Cn1cc(C#N)cc1C=O` came in with a melting point of 125 to 126 °C.

Compound `CC(C)(C(=O)c1ccccc1)C(N)=S` had a melting point of 172 to 175 °C.

In turn, `O=[N+]([O-])c1ccc(NC=C(S(=O)(=O)c2ccccc2)S(=O)(=O)c2ccccc2)nc1` displayed a melting point of 229 to 231 °C.

In turn, `CCN(CC)CC(=O)Nc1cccc2c1C(=O)c1c(NC(=O)CN(CC)CC)cccc1C2=O` returned a melting point of 228 to 229 °C.

Consider `CS(=O)(=O)Nc1cc([C@@H](O)CNC2CCN(c3ccc(NC(=O)c4ccc5c(c4)OCO5)cc3)CC2)ccc1O`, for which the melting point lay within 104 to 113 °C.

`N#CCc1c[nH]c2ccc(N)cc12` displayed a melting point of 125 to 130 °C.

In the case of `CCCCCC1CCC(c2ccc(-c3cc(F)c(C(F)(F)Oc4cc(F)c(C(F)(F)F)c(F)c4)c(F)c3)c(F)c2)OC1` (stereo unspecified), the melting point worked out at 75 °C.

For `Fc1cccc(OC2CN([C@H]3CC[C@@H](c4c[nH]c5ccc(F)cc54)CC3)C2)c1`, the melting point is 119 to 125 °C.

In turn, `CC(=O)c1c(-c2ccc(Cl)cc2)c(-c2ccc(Cl)cc2)n[nH]c1=O` gave a melting point of 267 to 269 °C.

The compound `NC(=O)c1ccc(-c2ccc(Oc3ccc(F)cc3)cc2)[nH]1` returned a melting point of 218 to 220 °C.

The compound `CC(=O)c1ccc(OCCCCN2C(=O)c3ccccc3C2=O)cc1` displayed a melting point of 112 to 114 °C.

As to `O=CNN(C1=NCCS1)c1ccccc1`, the melting point was in the range of 140 to 141 °C.

Take `Cc1nc2c(O)cccn2c(=O)c1CCN1CCC(c2noc3cc(F)ccc23)CC1`: the melting point worked out at 288 °C.

In turn, `CCn1c(COC(=O)OCc2nc(C(C)C)c(Sc3cc(Cl)cc(Cl)c3)n2CC)nc(C(C)C)c1Sc1cc(Cl)cc(Cl)c1` returned a melting point of 73 to 76 °C.

`CCc1cccc(C)c1CNc1cc(C(=O)OC)cn2c(C)nnc12` had a melting point of 214 °C.

`O=S(=O)(NC1CCCCC1)c1ccc(Nc2nccc(N3CCCc4c(O)cccc43)n2)cc1` displayed a melting point of 236 to 238 °C.

`COC(=O)CCN1CCC(=C2c3sccc3CCn3ccnc32)CC1` registered a melting point of 108 °C.

`CC(C)(C)OC(=O)N[C@@H](Cc1ccnc(C#N)c1)C(=O)OCc1ccccc1` showed a melting point of 74 to 76 °C.

The compound `O=C(Nc1cc2ncc(CN3CCCC3)cc2cc1Cl)c1ccc(-c2ccc(Cl)s2)cc1` gave a melting point of 185 °C.
